We go through four molecules from paper PMC11241769, “Comprehensive Characterization of Phytochemical Composition, Membrane Permeability, and Antiproliferative Activity of Juglans nigra Polyphenols” (International Journal of Molecular Sciences, 2024).

Each structure is given as a SMILES string. Where two headings read alike, the source gives them in different places.

Series [1] can be described thus: PAMPA-GI (parallel artificial membrane permeability assay, phosphatidylcholine membrane). The series is classed as in vitro ADME. The conditions noted are these: for Papp at 4 h, 100 µM: PAMPA, read-out: logPe PAMPA-GI (n = 9) (converted). The protocol: (§1) For the PAMPA-BBB test, 5 μL of porcine polar brain lipid extract (PBLE) solution (16.0 mg PBLE + 8.0 mg cholesterol dissolved in 600.0 μL n-dodecane) was applied for each well of the 96-well polycarbonate-based filter donor plates (top plate) (Multiscreen™-IP, MAIPN4510, pore size 0.45 μm; Merck). For the PAMPA-GI assay, the wells of the top plate were coated with 5 μL of the mixture of 16.0 mg phosphatidylcholine + 8.0 mg cholesterol dissolved in 600.0 μL n-dodecane. A measure of 150.0 μL of aliquots of the filtrated donor solutions were placed on the membrane. The 96-well PTFE acceptor plates (bottom plates) (Multiscreen Acceptor Plate, MSSACCEPTOR; Merck), were filled with 300.0 μL buffer solution (0.01 M PBS buffer, pH 7.4). The donor plate was placed upon the acceptor plate, and both plates were incubated together at 37 °C for 4 h in a Heidolph Titramax 1000 Vibrating platform shaker (Heidolph, Schwabach, Germany).
(§2) After incubation, sandwich plates were separated and the concentrations of each compound in the starting donor solution and in the acceptor and donor wells were determined in triplicate by UHPLC-DAD method described above. […] The effective permeability and the membrane retention in the PAMPA-BBB and the PAMPA GI experiments were calculated by Equations (4)–(7), respectively:(4) Pe=−2.303/A(t−τSS)·VA·VD/VA+VD·lg1−VA+VD/1−MR·VD×CAt/CD0 (5) Pe=−2.303/A(t−τSS)·1/1+ra·lg−ra+1+ra/1−MR×CDt/CD0 where Pe is the effective permeability coefficient (cm/s), A is the filter area (0.24 cm^2), VD and VA are the volumes in the donor (0.15 cm^3) and acceptor phases (0.30 cm^3), t is the incubation time (s), τSS is the time (s) to reach steady-state (240 s), CD(t) is the concentration (mol/cm^3) of the compound in the donor phase at time t, CD(0) is the concentration (mol/cm^3) of the compound in the donor phase at time 0, and MR is the estimated membrane retention factor (the estimated mole fraction of solute lost to the membrane), ra is the sink asymmetry ratio (gradient-pH-induced), defined as:(6) ra=VD/VA×Pe(A→D)/Pe(D→A) (7) MR=1−CDt/CD0−VA/VDCAt/CD0
(§3) All experiments were performed in three triplicates on three consecutive days (n = 9), caffeine standard was used as positive, while rutin as negative control. ClogP values were calculated by ChemAxon Marvin 22.3.
(The PAMPA barrier holds no transporters, so it reflects passive diffusion.)

Series [2] has as its system HT-29 colorectal carcinoma cells. As to the kind of experiment: in vitro cytostatic (antiproliferative) activity, Alamar Blue (resazurin) assay, HT-29. In kind it is cell-based. The conditions noted are these: Homo sapiens; in vitro cytostatic activity, Alamar Blue (resazurin) assay, HT-29 colon carcinoma cell culture; read-out: IC50 (µM) HT-29. The protocol: (§4) For the evaluation of the in vitro antiproliferative activity of the compounds, the cell viability was determined by resazurin (Alamar Blue) assay on MDA-MB 231 breast carcinoma, A2058 melanoma, and HT-29 colon carcinoma cell culture. The control wells were treated only with serum-free medium.
(§5) The cytostatic effect of the compounds was studied on tumor cell cultures in vitro. MDA-MB-231 human breast adenocarcinoma cells were cultured in DMEM medium supplemented with 10% FBS, 2 mM L-glutamine, penicillin–streptomycin antibiotics mixture (50 IU/mL, and 50 μg/mL, respectively), 1 mM sodium pyruvate, and 1% non-essential amino acid mixture. A2058 human melanoma cells, and HT-29 colorectal carcinoma cells were cultured in RPMI medium supplemented with 10% FBS, 2 mM L-glutamine, and penicillin–streptomycin antibiotics mixture (50 IU/mL and 50 μg/mL, respectively). Cell lines were generous gifts from Dr. József Tóvári (Department of Experimental Pharmacology, National Institute of Oncology, Budapest, Hungary).
(§6) All cell cultures were maintained at 37 °C in a humidified atmosphere with 5% CO2. The cells were grown to confluence and then divided into 96-well tissue culture plates with the initial cell number of 5.0 × 10^3 cells/well. […] Control cells were treated with serum-free medium or DMSO (c = 1.0 v/v %) at the same conditions. After this incubation period, cells were washed twice with serum-free medium, and following that, they were cultured for another 72 h in a 10% serum-containing medium at 37 °C. After that, cell viability was determined using the Alamar Blue assay. Alamar Blue is a non-toxic, resazurin-based dye that living cells reduce to a fluorescent molecule, resorufin [99]. Resazurin sodium salt (Merck, Darmstadt, Germany) was dissolved in PBS at c = 0.15 mg/mL, pH 7.4). A measure of 22 uL of the dye was added to each well and incubated at 37 °C for 3 h until the pink color of the reduced dye appeared. Fluorescence intensity in each well was measured using a Synergy H4 multimode microplate reader (BioTek, Winooski, VT); at λex = 530/30 and λem = 610/10 nm.
(§7) The cytostasis values were expressed in the percentage of untreated control.
(Resazurin is reduced to fluorescent resorufin, in cell work by metabolically active cells.)

Series [3] is described as follows: chemical stability in the aqueous solutions/buffer of the PAMPA experiments (UHPLC-DAD). The protocol: Quantities of the isolated compounds in the PAMPA experiments (14, 58, 74, 86, 92, 106, 141, and 143) were determined by UHPLC-DAD. The Juglans extracts were analyzed by an ACQUITY UPLC H-Class PLUS System equipped with a quaternary solvent delivery pump (QSM), an auto-sampler manager (FTN), a column compartment (CM), and a photodiode array (PDA) detector (Waters Corporation). An Acquity BEH C18 column (100 × 2.1 mm i.d., 1.7 µm; Waters Corporation) maintained at 30 °C was used as stationary phase. Eluent A was 0.3% acetic acid in water and eluent B was acetonitrile, the following gradient elution was applied (flow rate: 0.3 mL/min): 5.0–100.0% B (0.0–11.0 min), 100.0–5.0% B (11.0–11.5 min), 5% B (11.5–15.0 min). The injection volume was 5 µL and chromatograms were recorded at 200–400 nm. The chromatograms acquired at the UV absorption maxima of each compound were used for data evaluation.
Stock solutions (10 mM in methanol) were diluted with the defined buffer (pH 7.4 for the PAMPA-BBB and pH 6.8 for the PAMPA-GI assays) to obtain the donor solutions (composition: 594.0 μL buffer + 6.0 μL stock solution). The buffers were prepared as follows: pH = 6.8: 20.2 g Na2HPO4 ∙ 7H2O and 3.4 g NaH2PO4 ∙ H2O dissolved in distilled water to achieve the final volume of 1000.0 mL, pH adjustment with 0.5 M NaOH or 0.5 M HCl; pH = 7.4: one PBS tablet (Phosphate Buffered Saline, pH 7.4; Sigma Aldrich) dissolved in 200.0 mL distilled water. Donor solutions were filtered through Phenex-RC 15 mm, 0.2 μm syringe filters (Gen-Lab Ltd., Budapest, Hungary).

The subject of series [4] is Vero E6 non-tumorous kidney cells. As to the kind of experiment: selectivity study: cytostatic activity on non-tumorous Vero E6 cells, Alamar Blue assay. The series is classed as cell-based, African green monkey (C. sabaeus). The conditions noted are these: Vero E6 non-tumorous kidney cells; for IC50: Chlorocebus sabaeus, Vero C1008, in vitro cytostatic activity, Alamar Blue assay, read-out: IC50 (µM) VERO E6 Non Tumorous. On the procedure:
(§8) To determine the selectivity, we assessed the compounds on the Vero E6 non-tumorous kidney cells from African green monkeys (C. sabaeus), and their cytostatic activity was determined (Table 3).
(§9) For the selectivity study, a non-human primate cell culture was used. Vero E6 cells were established from kidney tissue sampled from an African green monkey (C. sabaeus) They originated from a primary culture initiated in March 1962 by Yoshihiro Yasumura at Chiba University in Japan. Vero E6 cells were obtained from the European Collection of Authenticated Cell Cultures (ECACC 85020206) and maintained in DMEM high-glucose (4.5 g/L) medium (Lonza, Basel, Switzerland) containing 10% FBS (Gibco, Thermo Fisher Scientific) and supplemented with 2 mM of L-glutamine (Lonza), 1 mM sodium pyruvate (Merck), and CellCultureGuard (PanReacApplichem, ITW Reagents, Darmstadt, Germany) at 37 °C in a humidified atmosphere of 5% CO2.
as §6, §7

The nature of series [5]: PAMPA-BBB (parallel artificial membrane permeability assay, porcine polar brain lipid extract). The conditions noted are these: for Papp at 4 h, 100 µM: pig, PAMPA, pH 7.4, read-out: logPe PAMPA-BBB (n = 9) (converted). In kind it is in vitro ADME. On the procedure: as §1, §2, §3
Series [6] concerns MDA-MB-231 human breast adenocarcinoma cells. The experiment in a line: in vitro cytostatic (antiproliferative) activity, Alamar Blue (resazurin) assay, MDA-MB 231. In kind it is cell-based. The conditions noted are these: in vitro cytostatic activity, Alamar Blue (resazurin) assay, MDA-MB 231 breast carcinoma cell culture, read-out: IC50 (µM) MDA-MB 231. On the procedure: as §4, §5, §6, §7

The test system of series [7] is A2058 human melanoma cells. As to the kind of experiment: in vitro cytostatic (antiproliferative) activity, Alamar Blue (resazurin) assay, A2058. The series is classed as cell-based. On the procedure:
as §4, §5, §6, §7

For series [8], the system named is MDA-MB 231, A2058, HT-29 and Vero E6 cells. As to the kind of experiment: in vitro cytostasis, Alamar Blue assay, cell lines taken together. In kind it is cell-based. The conditions noted are these: tumor cell lines (MDA-MB 231, A2058, HT-29). The protocol: as §4, §8, §5, §9, §6, §7
A further series deals with cell culture. Also noted: method as in PMID 34217043. The conditions noted are these: read-out: concentration causing 50% inhibition; depending on cell culture; cited from earlier work.
The mark [9] stands for this setting: in vitro cytostatic activity, Alamar Blue (resazurin) assay, A2058 melanoma cell culture, read-out: IC50 (µM) A2058.

A word on the inhibition: it is the relative decrease from the control value, in per cent. For the molecule `CCOC(=O)c1cc(O)c(O)c(O)c1` [Compound 58, ethyl gallate], the figures for the Papp at 4 h, 100 µM in series [1] and in series [5] were 3.72 ×10⁻⁶ cm/s and 1.7 ×10⁻⁶ cm/s, respectively. Besides, the IC50 in series [2] was more than 100 µM; in [4] it was 82.1 ± 5.7 µM; in series [6] it was more than 100 µM; in [7] (setting [9]), 102.5 ± 0.7 µM. In addition, in series [3] (PAMPA, 100 µM), the “additional minor compounds appeared in the aqueous solutions prepared for the PAMPA experiments” value is recorded as less than 5%. The inhibition at 100 µM in [7] (read-out: % inhibition at 100 µM, 100 µM, A2058 cell culture) was 56.4%.
For the molecule `O=c1c(O[C@@H]2OC[C@@H](O)[C@H](O)[C@H]2O)c(-c2ccc(O)c(O)c2)oc2cc(O)cc(O)c12` [Compound 74, quercetin-3-O-xyloside (reynoutrin)], in [1] (donor pH 6.8, acceptor pH 7.4, 37 °C, 4 h, n.d. = not detected in the acceptor phase), the “logPe PAMPA-GI (n = 9)” value was “not detected in the acceptor phase”. Also, in series [3] (pH 7.4), the “degradation in the pH 7.4 buffer” value is “significant degree of degradation”. The “IC50 (cytostatic activity) on the Vero E6 cells” value in [4] (selectivity) is given as “not cytostatic”. Besides, in series [5] (donor pH 7.4, acceptor pH 7.4, 37 °C, 4 h, n.d. = not detected in the acceptor phase), the “logPe PAMPA-BBB (n = 9)” value is listed as “not detected in the acceptor phase”. The “effect on the tumor cell lines” value in series [8] was “no effect”.
Regarding `O=C1C=CC(=O)c2c(O)cccc21` [Compound 141, juglone], the Papp at 4 h, 100 µM was 38.9 ×10⁻⁶ cm/s in series [1] and 77.6 ×10⁻⁶ cm/s in series [5]. The IC50 came to 0.53 ± 0.1 µM in series [2]; 3.7 ± 0.7 µM in series [4]; 9.9 ± 0.7 µM in [6]; 15.5 µM in [7] (A2058 melanoma, treatment overnight, then 72 h culture, Alamar Blue, read-out: IC50 (antiproliferative effect) on the melanoma culture); 13.5 ± 0.7 µM in series [7] (setting [9]). In series [3] (based on UHPLC-DAD, aqueous donor solutions), the “additional minor compounds appeared in the aqueous solutions prepared for the PAMPA experiments” value is less than 10%.
Consider `C/C=C/C1=CC=C/C(=C2\C(=O)CNC2=O)O1` [vermelhotin], for which the IC50 with cell culture was 12 to 20 µM.
